Drawing on the NIST ThermoML archive (doi:10.1016/j.fluid.2006.07.015), this text covers Normal melting temperature and activity coefficient for nine compounds.

Numbers after ± are expanded uncertainties.

The conditions of series [1]: Crystal; visual observation.
A short description of series [2]: activity coefficient (dimensionless); of the first substance listed, at infinite dilution; xn = mol fraction of the nth substance listed. As to conditions: 101 kPa, Liquid, Chromatography, x1 = 0.

As for `CCCCCCCCCCCCCCCCCCC(CCCCCCCCCCCCCCCCCC)CCCCC(CCCCCCCCCCCCCCCCCC)CCCCCCCCCCCCCCCCCC` [19,24-dioctadecyldotetracontane], the Normal melting temperature in series [1] was determined as 72 ± 6 °C.

With `CCCCCCCCCCCCCC` [tetradecane] + CCCCCCCCCCCCCCCCCCC(CCCCCCCCCCCCCCCCCC)CCCCC(CCCCCCCCCCCCCCCCCC)CCCCCCCCCCCCCCCCCC, the activity coefficient stood at 0.492 ± 0.033 in series [2] (373.15 K); 0.493 ± 0.033 in series [2] (388.15 K); 0.494 ± 0.033 in series [2] (403.15 K); 0.495 ± 0.033 in series [2] (418.15 K); 0.495 ± 0.033 in series [2] (433.15 K).

`Cc1ccccc1` [toluene] + CCCCCCCCCCCCCCCCCCC(CCCCCCCCCCCCCCCCCC)CCCCC(CCCCCCCCCCCCCCCCCC)CCCCCCCCCCCCCCCCCC: the activity coefficient in series [2] (373.15 K) was determined as 0.284 ± 0.036; in series [2] (388.15 K), 0.284 ± 0.036; in series [2] (403.15 K) it was 0.282 ± 0.036; in series [2] (418.15 K), 0.278 ± 0.036; in series [2] (433.15 K) it was 0.275 ± 0.036.

`C[C@@H]1CCCC[C@H]1C` [trans-1,2-dimethylcyclohexane] + CCCCCCCCCCCCCCCCCCC(CCCCCCCCCCCCCCCCCC)CCCCC(CCCCCCCCCCCCCCCCCC)CCCCCCCCCCCCCCCCCC: the activity coefficient in series [2] (373.15 K) was found to be 0.28 ± 0.036; in series [2] (388.15 K) it was 0.287 ± 0.036; in series [2] (403.15 K) it was 0.29 ± 0.036; in series [2] (418.15 K), 0.288 ± 0.036; in series [2] (433.15 K), 0.295 ± 0.036.

With `C[C@H]1CC[C@H](C)CC1` [trans-1,4-dimethylcyclohexane] + CCCCCCCCCCCCCCCCCCC(CCCCCCCCCCCCCCCCCC)CCCCC(CCCCCCCCCCCCCCCCCC)CCCCCCCCCCCCCCCCCC, the activity coefficient in series [2] (373.15 K) came to 0.288 ± 0.036; in series [2] (388.15 K), 0.295 ± 0.036; in series [2] (403.15 K), 0.297 ± 0.036; in series [2] (418.15 K), 0.298 ± 0.036; in series [2] (433.15 K), 0.299 ± 0.036.

In the case of `C1CC[C@@H]2CCC[C@H]2C1` [trans-bicyclo[4.3.0]nonane] + CCCCCCCCCCCCCCCCCCC(CCCCCCCCCCCCCCCCCC)CCCCC(CCCCCCCCCCCCCCCCCC)CCCCCCCCCCCCCCCCCC, the activity coefficient in series [2] (373.15 K) amounted to 0.267 ± 0.036; in series [2] (388.15 K), 0.278 ± 0.036; in series [2] (403.15 K), 0.276 ± 0.036; in series [2] (418.15 K) it was 0.273 ± 0.036; in series [2] (433.15 K), 0.277 ± 0.036.

In the case of `C1CC[C@H]2CCCC[C@@H]2C1` [trans-decahydronaphthalene] + CCCCCCCCCCCCCCCCCCC(CCCCCCCCCCCCCCCCCC)CCCCC(CCCCCCCCCCCCCCCCCC)CCCCCCCCCCCCCCCCCC, the activity coefficient came to 0.268 ± 0.036 in series [2] (373.15 K); 0.279 ± 0.036 in series [2] (388.15 K); 0.283 ± 0.036 in series [2] (403.15 K); 0.28 ± 0.036 in series [2] (418.15 K); 0.287 ± 0.036 in series [2] (433.15 K).

With `CCCCCCCCCCCCC` [tridecane] + CCCCCCCCCCCCCCCCCCC(CCCCCCCCCCCCCCCCCC)CCCCC(CCCCCCCCCCCCCCCCCC)CCCCCCCCCCCCCCCCCC, the activity coefficient was determined as 0.479 ± 0.033 in series [2] (373.15 K); 0.479 ± 0.033 in series [2] (388.15 K); 0.479 ± 0.033 in series [2] (403.15 K); 0.48 ± 0.033 in series [2] (418.15 K); 0.481 ± 0.033 in series [2] (433.15 K).

For the compound `CCCCCCCCCCC` [undecane] + CCCCCCCCCCCCCCCCCCC(CCCCCCCCCCCCCCCCCC)CCCCC(CCCCCCCCCCCCCCCCCC)CCCCCCCCCCCCCCCCCC, the activity coefficient came to 0.436 ± 0.033 in series [2] (373.15 K); 0.438 ± 0.033 in series [2] (388.15 K); 0.44 ± 0.033 in series [2] (403.15 K); 0.442 ± 0.033 in series [2] (418.15 K); 0.444 ± 0.033 in series [2] (433.15 K).
